Source: ChEMBL document CHEMBL4765476, “MCC950, a NLRP3 inhibitor, ameliorates lipopolysaccharide-induced lung inflammation in mice” (Bioorg Med Chem, 2021)
Calls of active or inactive are those of the source. The rule behind the calls is not given here.

What was measured:
[1] = test system: Mus musculus; assay: Antiinflammatory activity in ICR mouse assessed as reduction in LPS-induced neutrophils in BALF at 10 mg/kg, ip administered 18 hrs before LPS-stimulation and measured after 24 hrs by FACS analysis relative to control; assay type: functional; details: time 42 hrs
[2] = species on record: Mus musculus; details: ICR, dose 10-50 mg/kg, time 42.0 hrs
[3] = test system: Mus musculus; assay: Antiinflammatory activity in ICR mouse assessed as reduction in LPS-induced neutrophils in BALF at 50 mg/kg, INH administered 18 hrs before LPS-stimulation and measured after 24 hrs by FACS analysis relative to control; assay type: functional; details: time 42 hrs
[4] = test system: Mus musculus; assay: Antiinflammatory activity in ICR mouse assessed as reduction in LPS-induced neutrophil infiltration in lungs at 50 mg/kg, INH administered 18 hrs before LPS-stimulation and measured after 24 hrs by H and E staining based imaging analysis relative to control; assay type: functional; details: time 42 hrs
[5] = test system: Mus musculus; assay: Antiinflammatory activity in ICR mouse assessed as reduction in LPS-induced neutrophils in BALF at 10 mg/kg, INH administered 18 hrs before LPS-stimulation and measured after 24 hrs by FACS analysis relative to control; assay type: functional; details: time 42 hrs
[6] = species on record: Mus musculus; details: ICR, dose 10-50 mg/kg, time 42.0 hrs; remark: listed apart in the source
[7] = test system: Mus musculus; assay: Antiinflammatory activity in ICR mouse assessed as reduction in LPS-induced macrophages level in BALF at 10 mg/kg, INH administered 18 hrs before LPS-stimulation and measured after 24 hrs by FACS analysis relative to control; assay type: functional; details: time 42 hrs
[8] = species on record: Mus musculus; details: ICR, dose 10-50 mg/kg, time 42.0 hrs; remark: listed apart in the source
[9] = test system: Mus musculus; assay: Antiinflammatory activity in ICR mouse assessed as reduction in LPS-induced macrophage level in BALF at 50 mg/kg, ip administered 18 hrs before LPS-stimulation and measured after 24 hrs by FACS analysis relative to control; assay type: functional; details: time 42 hrs
[10] = species on record: Mus musculus; details: ICR, dose 10-50 mg/kg, time 42.0 hrs; remark: listed apart in the source
[11] = test system: Mus musculus; assay: Antiinflammatory activity in ICR mouse assessed as reduction in LPS-induced neutrophil infiltration in lungs at 10 mg/kg, INH administered 18 hrs before LPS-stimulation and measured after 24 hrs by H and E staining based imaging analysis relative to control; assay type: functional; details: time 42 hrs
[12] = test system: Mus musculus; assay: Antiinflammatory activity in ICR mouse assessed as reduction in LPS-induced macrophage level in BALF at 10 mg/kg, ip administered 18 hrs before LPS-stimulation and measured after 24 hrs by FACS analysis relative to control; assay type: functional; details: time 42 hrs
[13] = test system: Mus musculus; assay: Antiinflammatory activity in ICR mouse assessed as reduction in LPS-induced neutrophil infiltration in lungs at 50 mg/kg, ip administered 18 hrs before LPS-stimulation and measured after 24 hrs by H and E staining based imaging analysis relative to control; assay type: functional; details: time 42 hrs
[14] = species on record: Mus musculus; details: ICR, dose 10-50 mg/kg, time 42.0 hrs; remark: listed apart in the source
[15] = species on record: Mus musculus; details: ICR, dose 10-50 mg/kg, time 42.0 hrs; remark: listed apart in the source
[16] = test system: Mus musculus; assay: Antiinflammatory activity in ICR mouse assessed as reduction in LPS-induced macrophages level in BALF at 50 mg/kg, INH administered 18 hrs before LPS-stimulation and measured after 24 hrs by FACS analysis relative to control; assay type: functional; details: time 42 hrs
[17] = species on record: Mus musculus; details: ICR, dose 50.0 mg/kg, time 42.0 hrs
[18] = species on record: Mus musculus; details: ICR, dose 10-50 mg/kg, time 42.0 hrs; remark: listed apart in the source
[19] = species on record: Mus musculus; details: ICR, dose 10.0 mg/kg, time 42.0 hrs
[20] = test system: Mus musculus; assay: Antiinflammatory activity in ICR mouse assessed as reduction in LPS-induced neutrophils in BALF at 50 mg/kg, ip administered 18 hrs before LPS-stimulation and measured after 24 hrs by FACS analysis relative to control; assay type: functional; details: time 42 hrs
[21] = test system: Mus musculus; assay: Antiinflammatory activity in ICR mouse assessed as reduction in LPS-induced lymphocyte level in BALF at 50 mg/kg, ip administered 18 hrs before LPS-stimulation and measured after 24 hrs by FACS analysis relative to control; assay type: functional; details: time 42 hrs
[22] = test system: Mus musculus; assay: Antiinflammatory activity in ICR mouse assessed as reduction in LPS-induced neutrophil infiltration in lungs at 10 mg/kg, ip administered 18 hrs before LPS-stimulation and measured after 24 hrs by H and E staining based imaging analysis relative to control; assay type: functional; details: time 42 hrs
[23] = species on record: Mus musculus; details: ICR, dose 10-50 mg/kg, time 42.0 hrs; remark: listed apart in the source
[24] = species on record: Mus musculus; details: ICR, dose 10-50 mg/kg, time 42.0 hrs; remark: listed apart in the source
[25] = test system: Mus musculus; assay: Antiinflammatory activity in ICR mouse assessed as reduction in LPS-induced lymphocyte level in BALF at 10 mg/kg, ip administered 18 hrs before LPS-stimulation and measured after 24 hrs by FACS analysis relative to control; assay type: functional; details: time 42 hrs
[26] = species on record: Mus musculus; details: ICR, dose 10-50 mg/kg, time 42.0 hrs; remark: listed apart in the source
[27] = species on record: Mus musculus; details: ICR, dose 10-50 mg/kg, time 42.0 hrs; remark: listed apart in the source
[28] = test system: Mus musculus; assay: Antiinflammatory activity in ICR mouse assessed as reduction in LPS-induced lymphocyte level in BALF at 50 mg/kg, INH administered 18 hrs before LPS-stimulation and measured after 24 hrs by FACS analysis relative to control; assay type: functional; details: time 42 hrs
[29] = species on record: Mus musculus; details: ICR, dose 10-50 mg/kg, time 42.0 hrs; remark: listed apart in the source
[30] = test system: Mus musculus; assay: Antiinflammatory activity in ICR mouse assessed as reduction in LPS-induced lymphocyte level in BALF at 10 mg/kg, INH administered 18 hrs before LPS-stimulation and measured after 24 hrs by FACS analysis relative to control; assay type: functional; details: time 42 hrs
[31] = species on record: Mus musculus; details: ICR, dose 10-50 mg/kg, time 42.0 hrs; remark: listed apart in the source
[32] = species on record: Mus musculus; details: ICR, dose 10-50 mg/kg, time 42.0 hrs; remark: listed apart in the source
[33] = species on record: Mus musculus; details: ICR, dose 10-50 mg/kg, time 42.0 hrs; remark: listed apart in the source

CC(C)(O)c1coc(S(=O)(=O)NC(=O)Nc2c3c(cc4c2CCC4)CCC3)c1
inhibition in vivo at 10 mg/kg [1]: 44.2%
inhibition [2]: Active
inhibition in vivo at 50 mg/kg [3]: 71.7%
inhibition in vivo at 50 mg/kg [4]: 52.9%
inhibition in vivo at 10 mg/kg [5]: 46.5%
inhibition [6]: Active
inhibition in vivo at 10 mg/kg [7]: 36.6%
inhibition [8]: Active
inhibition in vivo at 50 mg/kg [9]: 76.7%
inhibition [10]: Active
inhibition in vivo at 10 mg/kg [11]: 35.3%
inhibition in vivo at 10 mg/kg [12]: 53.2%
inhibition in vivo at 50 mg/kg [13]: 51.4%
inhibition [14]: Active
inhibition [15]: Active
inhibition in vivo at 50 mg/kg [16]: 43.8%
inhibition [17]: Active
inhibition [18]: Active
inhibition [19]: inactive
inhibition in vivo at 50 mg/kg [20]: 67.8%
inhibition in vivo at 50 mg/kg [21]: 49.8%
inhibition in vivo at 10 mg/kg [22]: 37.1%
inhibition [23]: Active
inhibition [24]: Active
inhibition in vivo at 10 mg/kg [25]: 40.3%
inhibition [26]: Active
inhibition [27]: Active
inhibition in vivo at 50 mg/kg [28]: 34.9%
inhibition [29]: Active
inhibition in vivo at 10 mg/kg [30]: 28.3%
inhibition [31]: Active
inhibition [32]: Active
inhibition [33]: Active
